These are literature values, as cited in patent publication US20120263775A1, “PRODUCTION OF PESTICIDE GRANULATES IN A SPOUTED BED APPARATUS” (priority 2009, published 2012).

Values after ≈ are worked out from the molar mass of the structure shown.

Take `COC(=O)N(OC)c1ccccc1COc1ccn(-c2ccc(Cl)cc2)n1` [Pyraclostrobin, pyraclostrobin]: the solubility in water is 2 µg/mL (≈ 5.16 µM).
